Assay results: patent publication US8192962B2, “Processes for detecting toxic substances” (Daikin Industries, Ltd., priority 2001, dated 2012)

Test system: Detoxification protein genes
Test: DNA chip mRNA expression in yeast, detoxification protein genes (Table 8)
Assay type: cell-based, Saccharomyces cerevisiae S288C
In short: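 Ratios compare mRNA levels in stressed and control S. cerevisiae. Each toxicant was applied for two hours to log-phase cultures at 25° C. at a sub-lethal, growth-inhibiting level; fluorescent cDNA (Cy3- or Cy5-dUTP) was hybridized to a genome-wide yeast chip for over 12 h at 65° C.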

CCCCCCCCCCCCc1ccc(S(=O)(=O)[O-])cc1.[Na+] [(17), sodium dodecylbenzosulfonate]
The level of expressed mRNA in the presence of chemical substance/The level of expressed mRNA in the absence of chemical substance (yeast gene YBL064C): 1.2
The level of expressed mRNA in the presence of chemical substance/The level of expressed mRNA in the absence of chemical substance (yeast gene YBR008C): 2.0
The level of expressed mRNA in the presence of chemical substance/The level of expressed mRNA in the absence of chemical substance (yeast gene YBR145W): 1.7
The level of expressed mRNA in the presence of chemical substance/The level of expressed mRNA in the absence of chemical substance (yeast gene YBR244W): 1.2
The level of expressed mRNA in the presence of chemical substance/The level of expressed mRNA in the absence of chemical substance (yeast gene YBR293W): 1.0
The level of expressed mRNA in the presence of chemical substance/The level of expressed mRNA in the absence of chemical substance (yeast gene YCL035C): 2.6
The level of expressed mRNA in the presence of chemical substance/The level of expressed mRNA in the absence of chemical substance (yeast gene YCL069W): 1.0
The level of expressed mRNA in the presence of chemical substance/The level of expressed mRNA in the absence of chemical substance (yeast gene YCR083W): 1.3
The level of expressed mRNA in the presence of chemical substance/The level of expressed mRNA in the absence of chemical substance (yeast gene YDL100C): 1.2
The level of expressed mRNA in the presence of chemical substance/The level of expressed mRNA in the absence of chemical substance (yeast gene YDL168W): 0.9
The level of expressed mRNA in the presence of chemical substance/The level of expressed mRNA in the absence of chemical substance (yeast gene YDR256C): 1.0
The level of expressed mRNA in the presence of chemical substance/The level of expressed mRNA in the absence of chemical substance (yeast gene YDR453C): 1.0
The level of expressed mRNA in the presence of chemical substance/The level of expressed mRNA in the absence of chemical substance (yeast gene YDR513W): 1.3
The level of expressed mRNA in the presence of chemical substance/The level of expressed mRNA in the absence of chemical substance (yeast gene YDR538W): 1.0
The level of expressed mRNA in the presence of chemical substance/The level of expressed mRNA in the absence of chemical substance (yeast gene YEL027W): 1.0
The level of expressed mRNA in the presence of chemical substance/The level of expressed mRNA in the absence of chemical substance (yeast gene YEL065W): 0.7
The level of expressed mRNA in the presence of chemical substance/The level of expressed mRNA in the absence of chemical substance (yeast gene YER185W): 2.6
The level of expressed mRNA in the presence of chemical substance/The level of expressed mRNA in the absence of chemical substance (yeast gene YFL050C): 0.8
The level of expressed mRNA in the presence of chemical substance/The level of expressed mRNA in the absence of chemical substance (yeast gene YGL013C): 1.1
The level of expressed mRNA in the presence of chemical substance/The level of expressed mRNA in the absence of chemical substance (yeast gene YGL254W): 0.8
The level of expressed mRNA in the presence of chemical substance/The level of expressed mRNA in the absence of chemical substance (yeast gene YGR088W): 0.9
The level of expressed mRNA in the presence of chemical substance/The level of expressed mRNA in the absence of chemical substance (yeast gene YGR138C): 0.7
The level of expressed mRNA in the presence of chemical substance/The level of expressed mRNA in the absence of chemical substance (yeast gene YGR197C): 1.7
The level of expressed mRNA in the presence of chemical substance/The level of expressed mRNA in the absence of chemical substance (yeast gene YGR209C): 1.3
The level of expressed mRNA in the presence of chemical substance/The level of expressed mRNA in the absence of chemical substance (yeast gene YGR224W): 2.8
The level of expressed mRNA in the presence of chemical substance/The level of expressed mRNA in the absence of chemical substance (yeast gene YHL040C): 1.4
The level of expressed mRNA in the presence of chemical substance/The level of expressed mRNA in the absence of chemical substance (yeast gene YHL047C): 1.2
The level of expressed mRNA in the presence of chemical substance/The level of expressed mRNA in the absence of chemical substance (yeast gene YHR008C): 0.9
The level of expressed mRNA in the presence of chemical substance/The level of expressed mRNA in the absence of chemical substance (yeast gene YHR048W): 0.7
The level of expressed mRNA in the presence of chemical substance/The level of expressed mRNA in the absence of chemical substance (yeast gene YHR053C): 1.0
The level of expressed mRNA in the presence of chemical substance/The level of expressed mRNA in the absence of chemical substance (yeast gene YHR055C): 0.9
The level of expressed mRNA in the presence of chemical substance/The level of expressed mRNA in the absence of chemical substance (yeast gene YIR002C): 1.1
The level of expressed mRNA in the presence of chemical substance/The level of expressed mRNA in the absence of chemical substance (yeast gene YIR038C): 2.8
The level of expressed mRNA in the presence of chemical substance/The level of expressed mRNA in the absence of chemical substance (yeast gene YJL101C): 0.9
The level of expressed mRNA in the presence of chemical substance/The level of expressed mRNA in the absence of chemical substance (yeast gene YJR104C): 0.9
The level of expressed mRNA in the presence of chemical substance/The level of expressed mRNA in the absence of chemical substance (yeast gene YKL026C): 1.6
The level of expressed mRNA in the presence of chemical substance/The level of expressed mRNA in the absence of chemical substance (yeast gene YKL064W): 1.3
The level of expressed mRNA in the presence of chemical substance/The level of expressed mRNA in the absence of chemical substance (yeast gene YKR066C): 0.9
The level of expressed mRNA in the presence of chemical substance/The level of expressed mRNA in the absence of chemical substance (yeast gene YKR105C): 0.8
The level of expressed mRNA in the presence of chemical substance/The level of expressed mRNA in the absence of chemical substance (yeast gene YKR106W): 0.9
The level of expressed mRNA in the presence of chemical substance/The level of expressed mRNA in the absence of chemical substance (yeast gene YLL028W): 1.2
The level of expressed mRNA in the presence of chemical substance/The level of expressed mRNA in the absence of chemical substance (yeast gene YLL057C): 3.0
The level of expressed mRNA in the presence of chemical substance/The level of expressed mRNA in the absence of chemical substance (yeast gene YLL060C): 1.9
The level of expressed mRNA in the presence of chemical substance/The level of expressed mRNA in the absence of chemical substance (yeast gene YLR043C): 1.5
The level of expressed mRNA in the presence of chemical substance/The level of expressed mRNA in the absence of chemical substance (yeast gene YLR046C): 5.2
The level of expressed mRNA in the presence of chemical substance/The level of expressed mRNA in the absence of chemical substance (yeast gene YML028W): 1.1
The level of expressed mRNA in the presence of chemical substance/The level of expressed mRNA in the absence of chemical substance (yeast gene YML116W): 1.0
The level of expressed mRNA in the presence of chemical substance/The level of expressed mRNA in the absence of chemical substance (yeast gene YMR015C): 1.0
The level of expressed mRNA in the presence of chemical substance/The level of expressed mRNA in the absence of chemical substance (yeast gene YMR038C): 1.2
The level of expressed mRNA in the presence of chemical substance/The level of expressed mRNA in the absence of chemical substance (yeast gene YNL239W): 1.1
The level of expressed mRNA in the presence of chemical substance/The level of expressed mRNA in the absence of chemical substance (yeast gene YNL241C): 1.0
The level of expressed mRNA in the presence of chemical substance/The level of expressed mRNA in the absence of chemical substance (yeast gene YNL259C): 2.6
The level of expressed mRNA in the presence of chemical substance/The level of expressed mRNA in the absence of chemical substance (yeast gene YOL158C): 1.4
The level of expressed mRNA in the presence of chemical substance/The level of expressed mRNA in the absence of chemical substance (yeast gene YOR031W): 1.7
The level of expressed mRNA in the presence of chemical substance/The level of expressed mRNA in the absence of chemical substance (yeast gene YOR153W): 2.5
The level of expressed mRNA in the presence of chemical substance/The level of expressed mRNA in the absence of chemical substance (yeast gene YOR247W): 1.2
The level of expressed mRNA in the presence of chemical substance/The level of expressed mRNA in the absence of chemical substance (yeast gene YOR251C): 0.9
The level of expressed mRNA in the presence of chemical substance/The level of expressed mRNA in the absence of chemical substance (yeast gene YOR273C): 3.2
The level of expressed mRNA in the presence of chemical substance/The level of expressed mRNA in the absence of chemical substance (yeast gene YPL163C): 1.4
The level of expressed mRNA in the presence of chemical substance/The level of expressed mRNA in the absence of chemical substance (yeast gene YPR200C): 1.1
